For 25 compounds, IC50 and Ki results are on record in ChEMBL document CHEMBL1909046, “DrugMatrix in vitro pharmacology data”.

For assay [1], the target named is Acetylcholinesterase (Homo sapiens, UniProt P22303). Briefly: DRUGMATRIX: Acetylcholinesterase enzyme inhibition (substrate: acetylthiocholine). The assay is classed as cell-based, HEK293. The following applies: hek293; Not Active = under 50% inhibition at 10 µM.
Assay [2] concerns the target T1, Cathepsin G (Homo sapiens, UniProt P08311).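 Also: inhibition of Cathepsin G enzyme activity, tested on an AMC-conjugated peptide substrate; in other assays of this panel Not Active means under 50% inhibition at 10 µM.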
T1 sequence (P08311 whole entry): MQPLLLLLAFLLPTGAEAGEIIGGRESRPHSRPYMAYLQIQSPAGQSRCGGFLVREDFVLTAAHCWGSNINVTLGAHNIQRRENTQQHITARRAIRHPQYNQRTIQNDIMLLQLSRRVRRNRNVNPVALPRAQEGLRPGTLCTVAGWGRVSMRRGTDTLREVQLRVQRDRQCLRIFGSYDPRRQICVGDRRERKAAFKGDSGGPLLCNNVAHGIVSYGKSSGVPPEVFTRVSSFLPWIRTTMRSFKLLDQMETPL
Briefly: biochemical. The assay is classed as tissue-based, Neutrophil. Particulars: neutrophil.

Assay [3] deals with Receptor tyrosine-protein kinase erbB-2 (Homo sapiens, UniProt P04626). The assay is classed as cell-based. Particulars: insect cells.
The target of assay [4] is 5-hydroxytryptamine receptor 2B (Homo sapiens, UniProt P41595). The assay is classed as cell membranes, CHO-K1, Membrane. The following applies: for Ki: read-out: Ki. As to all read-outs here: in other assays of this panel Not Active means under 50% inhibition at 10 µM.
Assay [5] has as its target T2, 5-hydroxytryptamine receptor 2C (Homo sapiens, UniProt P28335).
T2 sequence (P28335 whole entry): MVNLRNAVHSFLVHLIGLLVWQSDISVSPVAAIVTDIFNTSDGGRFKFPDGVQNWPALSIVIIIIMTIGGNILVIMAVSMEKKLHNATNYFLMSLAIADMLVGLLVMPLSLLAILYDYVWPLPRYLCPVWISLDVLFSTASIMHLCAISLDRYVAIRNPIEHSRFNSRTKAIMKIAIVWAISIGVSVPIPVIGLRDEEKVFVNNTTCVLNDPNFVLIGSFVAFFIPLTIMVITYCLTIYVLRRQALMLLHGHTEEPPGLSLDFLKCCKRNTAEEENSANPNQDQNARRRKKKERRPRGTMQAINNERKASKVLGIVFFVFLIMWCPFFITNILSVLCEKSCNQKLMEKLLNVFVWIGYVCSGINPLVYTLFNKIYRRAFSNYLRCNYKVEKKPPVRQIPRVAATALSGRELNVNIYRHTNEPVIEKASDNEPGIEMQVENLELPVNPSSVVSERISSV
Briefly: DRUGMATRIX: Serotonin (5-Hydroxytryptamine) 5-HT2C radioligand binding (ligand: [3H] Mesulergine). The following applies: Not Active = under 50% inhibition at 10 µM; for Ki: read-out: Ki. The format is cell membranes, CHO-K1, Membrane.

Assay [6] has as its target Vasopressin V1a receptor (Homo sapiens, UniProt P37288). The assay is classed as cell membranes, Membrane. Particulars: hek293. Also: in other assays of this panel Not Active means under 50% inhibition at 10 µM.

Sequence of Acetylcholinesterase (P22303 whole entry): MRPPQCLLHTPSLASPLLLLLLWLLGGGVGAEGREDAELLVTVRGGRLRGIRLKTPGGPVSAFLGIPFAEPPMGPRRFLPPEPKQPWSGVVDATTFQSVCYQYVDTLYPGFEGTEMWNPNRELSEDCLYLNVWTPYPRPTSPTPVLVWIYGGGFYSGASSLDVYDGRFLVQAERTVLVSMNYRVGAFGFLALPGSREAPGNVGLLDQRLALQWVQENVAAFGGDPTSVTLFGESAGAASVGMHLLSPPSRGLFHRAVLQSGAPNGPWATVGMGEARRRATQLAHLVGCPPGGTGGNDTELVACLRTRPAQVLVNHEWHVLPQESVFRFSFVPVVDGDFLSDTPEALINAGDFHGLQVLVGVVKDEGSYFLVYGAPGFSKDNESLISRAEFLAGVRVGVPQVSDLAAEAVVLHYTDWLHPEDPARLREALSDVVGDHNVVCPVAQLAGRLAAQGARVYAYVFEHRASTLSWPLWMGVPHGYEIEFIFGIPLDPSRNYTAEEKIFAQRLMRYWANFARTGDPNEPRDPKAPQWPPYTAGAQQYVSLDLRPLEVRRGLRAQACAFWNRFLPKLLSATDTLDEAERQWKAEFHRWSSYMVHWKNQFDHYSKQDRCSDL
Sequence of Vasopressin V1a receptor (P37288 whole entry): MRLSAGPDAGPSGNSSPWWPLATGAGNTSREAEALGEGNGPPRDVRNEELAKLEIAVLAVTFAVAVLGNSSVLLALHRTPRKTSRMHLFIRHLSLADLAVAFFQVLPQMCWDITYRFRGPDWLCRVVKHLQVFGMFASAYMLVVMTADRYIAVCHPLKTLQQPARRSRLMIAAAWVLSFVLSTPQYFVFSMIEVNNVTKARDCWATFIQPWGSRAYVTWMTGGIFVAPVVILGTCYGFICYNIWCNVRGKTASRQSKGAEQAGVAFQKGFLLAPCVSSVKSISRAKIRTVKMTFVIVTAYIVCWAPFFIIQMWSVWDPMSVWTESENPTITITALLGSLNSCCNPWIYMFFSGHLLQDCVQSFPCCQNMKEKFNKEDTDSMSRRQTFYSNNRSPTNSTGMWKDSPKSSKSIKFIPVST
Sequence of 5-hydroxytryptamine receptor 2B (P41595 whole entry): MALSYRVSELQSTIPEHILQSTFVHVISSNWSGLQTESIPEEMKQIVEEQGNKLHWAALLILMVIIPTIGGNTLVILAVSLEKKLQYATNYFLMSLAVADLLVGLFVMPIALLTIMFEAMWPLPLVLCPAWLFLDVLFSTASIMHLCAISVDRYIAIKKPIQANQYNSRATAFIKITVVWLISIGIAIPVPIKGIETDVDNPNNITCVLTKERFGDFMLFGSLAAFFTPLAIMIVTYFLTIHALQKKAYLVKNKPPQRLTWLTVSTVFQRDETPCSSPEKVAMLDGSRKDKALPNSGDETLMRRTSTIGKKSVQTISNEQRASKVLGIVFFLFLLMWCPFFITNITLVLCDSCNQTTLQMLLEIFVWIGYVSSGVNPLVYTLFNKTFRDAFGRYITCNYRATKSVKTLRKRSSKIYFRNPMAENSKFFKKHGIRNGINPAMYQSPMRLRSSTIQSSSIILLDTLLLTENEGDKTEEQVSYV
Sequence of Receptor tyrosine-protein kinase erbB-2 (P04626 whole entry): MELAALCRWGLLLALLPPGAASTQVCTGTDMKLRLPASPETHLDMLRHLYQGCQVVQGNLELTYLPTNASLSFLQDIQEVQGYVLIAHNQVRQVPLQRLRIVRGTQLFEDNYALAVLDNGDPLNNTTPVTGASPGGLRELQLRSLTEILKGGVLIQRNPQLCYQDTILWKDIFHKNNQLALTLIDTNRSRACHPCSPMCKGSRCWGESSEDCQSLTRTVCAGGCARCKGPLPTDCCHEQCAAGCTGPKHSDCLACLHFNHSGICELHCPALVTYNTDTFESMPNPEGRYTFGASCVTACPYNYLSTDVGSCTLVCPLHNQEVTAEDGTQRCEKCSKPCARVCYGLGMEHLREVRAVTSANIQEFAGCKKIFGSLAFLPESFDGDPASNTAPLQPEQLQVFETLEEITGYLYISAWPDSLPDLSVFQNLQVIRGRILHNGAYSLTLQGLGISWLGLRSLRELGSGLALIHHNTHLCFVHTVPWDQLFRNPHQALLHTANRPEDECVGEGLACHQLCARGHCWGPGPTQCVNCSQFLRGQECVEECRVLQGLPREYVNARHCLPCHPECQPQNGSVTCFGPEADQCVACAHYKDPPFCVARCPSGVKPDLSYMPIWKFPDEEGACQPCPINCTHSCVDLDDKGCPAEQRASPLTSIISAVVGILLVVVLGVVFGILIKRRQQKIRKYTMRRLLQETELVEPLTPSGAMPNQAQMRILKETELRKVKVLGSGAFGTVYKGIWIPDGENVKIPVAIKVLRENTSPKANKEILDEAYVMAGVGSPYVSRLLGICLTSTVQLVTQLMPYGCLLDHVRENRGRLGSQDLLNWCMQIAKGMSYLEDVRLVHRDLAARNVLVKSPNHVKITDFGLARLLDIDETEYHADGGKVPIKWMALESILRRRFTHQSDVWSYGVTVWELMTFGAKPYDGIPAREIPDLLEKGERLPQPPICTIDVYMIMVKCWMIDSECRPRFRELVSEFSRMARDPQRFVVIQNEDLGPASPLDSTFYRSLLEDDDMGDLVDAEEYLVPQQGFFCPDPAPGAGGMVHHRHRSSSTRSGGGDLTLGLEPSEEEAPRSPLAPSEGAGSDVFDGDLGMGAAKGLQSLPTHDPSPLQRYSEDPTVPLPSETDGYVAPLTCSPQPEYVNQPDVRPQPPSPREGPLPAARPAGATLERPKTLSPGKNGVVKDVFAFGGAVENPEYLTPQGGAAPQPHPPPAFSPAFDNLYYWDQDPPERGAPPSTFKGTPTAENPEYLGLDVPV

A word on the IC50: it is the concentration at which inhibition is half-maximal. `CC(C)(c1ccc(O)cc1)c1ccc(O)cc1` [BISPHENOL A]: the IC50 result in assay [1], in assay [2], in assay [3], in assay [4] (cho-k1), in assay [5] (cho-k1) and in assay [6] was “Not Active” throughout.

`CCN1CCN(C(=O)N[C@@H](C(=O)N[C@@H]2C(=O)N3[C@@H]2SC(C)(C)[C@@H]3C(=O)O)c2ccccc2)C(=O)C1=O` [PIPERACILLIN]: the IC50 result in assay [1], in assay [2], in assay [3], in assay [4] (cho-k1), in assay [5] (cho-k1) and in assay [6] was “Not Active” throughout.

Consider `CC[C@H]1OC(=O)[C@H](C)[C@@H](O[C@H]2C[C@@](C)(OC)[C@@H](O)[C@H](C)O2)[C@H](C)[C@@H](O[C@@H]2O[C@H](C)C[C@H](N(C)C)[C@H]2O)[C@](C)(O)C[C@@H](C)C(=O)[C@H](C)[C@@H](O)[C@]1(C)O` [ERYTHROMYCIN], for which the IC50 entry in assay [1], in assay [2], in assay [3], in assay [4] (cho-k1), in assay [5] (cho-k1) and in assay [6] was “Not Active” each time.

As to `NC(N)=Nc1nc(CSCCC(N)=NS(N)(=O)=O)cs1` [FAMOTIDINE], the IC50 entry in assay [1], in assay [2], in assay [3], in assay [4] (cho-k1), in assay [5] (cho-k1) and in assay [6] was “Not Active” in each case.

`CN(CCOc1ccc(C[C@H](Nc2ccccc2C(=O)c2ccccc2)C(=O)O)cc1)c1ccccn1`: the IC50 entry in assay [1], in assay [2], in assay [3], in assay [4] (cho-k1), in assay [5] (cho-k1) and in assay [6] was “Not Active” throughout.

`COc1cc(NC(C)CCCN)c2ncccc2c1` (centres undefined) [PRIMAQUINE]: the IC50 result in assay [1], in assay [2], in assay [3], in assay [4] (cho-k1), in assay [5] (cho-k1) and in assay [6] was “Not Active” in each case.

Consider `c1ccc2sc(SSc3nc4ccccc4s3)nc2c1` [BENZOTHIAZYL DISULFIDE], for which the IC50 result in assay [1], in assay [2], in assay [3], in assay [4] (cho-k1), in assay [5] (cho-k1) and in assay [6] was “Not Active” in each case.

In the case of `CC(C)(C#N)c1cc(Cn2cncn2)cc(C(C)(C)C#N)c1` [ANASTROZOLE], the IC50 entry in assay [1], in assay [2], in assay [3], in assay [4] (cho-k1), in assay [5] (cho-k1) and in assay [6] was “Not Active” each time.

For `CC(=O)[C@]1(O)Cc2c(O)c3c(c(O)c2[C@@H](O[C@H]2C[C@H](N)[C@H](O)[C@H](C)O2)C1)C(=O)c1ccccc1C3=O` [IDARUBICIN], the IC50 entry in assay [1], in assay [2], in assay [3], in assay [4] (cho-k1), in assay [5] (cho-k1) and in assay [6] was “Not Active” each time.

For `O=C(O)c1ccccc1` [BENZOIC ACID], the IC50 result in assay [1], in assay [2], in assay [3], in assay [4] (cho-k1), in assay [5] (cho-k1) and in assay [6] was “Not Active” in each case.

On to `O=C(Nc1ccc(Cl)c(Cl)c1)c1cc(Cl)cc(Cl)c1O` [3,3',4',5-TETRACHLOROSALICYLANILIDE], for which the IC50 result in assay [1], in assay [2], in assay [3], in assay [4] (cho-k1), in assay [5] (cho-k1) and in assay [6] was “Not Active” in each case.

As for `CC(C)NCC(O)COc1ccc(CC(N)=O)cc1` (centres undefined) [ATENOLOL], the 50% inhibitory concentration (IC50) entry in assay [1], in assay [2], in assay [3], in assay [4] (cho-k1), in assay [5] (cho-k1) and in assay [6] was “Not Active” in each case.

Regarding `OC[C@H]1O[C@@H]2O[C@H]3[C@H](O)[C@@H](O)[C@@H](O[C@H]4[C@H](O)[C@@H](O)[C@@H](O[C@H]5[C@H](O)[C@@H](O)[C@@H](O[C@H]6[C@H](O)[C@@H](O)[C@@H](O[C@H]7[C@H](O)[C@@H](O)[C@@H](O[C@H]1[C@H](O)[C@H]2O)O[C@@H]7CO)O[C@@H]6CO)O[C@@H]5CO)O[C@@H]4CO)O[C@@H]3CO` [ALFADEX], the IC50 entry in assay [1], in assay [2], in assay [3], in assay [4] (cho-k1), in assay [5] (cho-k1) and in assay [6] was “Not Active” in each case.

One may read the Ki as the equilibrium dissociation constant of an inhibitor or competing ligand from its target. Regarding `CC(=O)Nc1ccc2c(c1)Cc1ccccc1-2` [2-ACETYLAMINOFLUORENE], the half-inhibitory concentration (IC50) entry in assay [1] is “Not Active”; in assay [2], “Not Active”; in assay [3] it was “Not Active”; in assay [4] (read-out: IC50), 3170 nM; in assay [5] (read-out: IC50), 2140 nM; in assay [6], “Not Active”. For the same compound, the Ki worked out at 2020 nM in assay [4] and 1120 nM in assay [5].

Regarding `CCN1CCN(c2cc3c(cc2F)c(=O)c(C(=O)O)cn3C2CC2)CC1` [ENROFLOXACIN], the IC50 result in assay [1], in assay [2], in assay [3], in assay [4] (cho-k1), in assay [5] (cho-k1) and in assay [6] was “Not Active” in each case.

For the compound `O=C(O)CO` [GLYCOLIC ACID], the IC50 result in assay [1], in assay [2], in assay [3], in assay [4] (cho-k1), in assay [5] (cho-k1) and in assay [6] was “Not Active” in each case.

Turning to `CN(Cc1cc(Br)cc(Br)c1N)C1CCCCC1` [BROMHEXINE], the IC50 entry in assay [1], in assay [2], in assay [3], in assay [4] (cho-k1), in assay [5] (cho-k1) and in assay [6] was “Not Active” throughout.

On to `CC12CCC(CC1)C(C)(C)O2` [EUCALYPTOL], for which the IC50 result in assay [1], in assay [2], in assay [3], in assay [4] (cho-k1), in assay [5] (cho-k1) and in assay [6] was “Not Active” each time.

In the case of `C[C@@H]1[C@H](O)[C@@H](C)/C=C/C=C/C=C/C=C/C=C/C=C/C=C/[C@H](O[C@@H]2O[C@H](C)[C@@H](O)[C@H](N)[C@@H]2O)C[C@@H]2O[C@](O)(C[C@@H](O)C[C@@H](O)[C@H](O)CC[C@@H](O)C[C@@H](O)CC(=O)O[C@H]1C)C[C@H](O)[C@H]2C(=O)O` [AMPHOTERICIN B], the concentration for half-maximal inhibition (IC50) result in assay [1], in assay [2], in assay [3], in assay [4] (cho-k1), in assay [5] (cho-k1) and in assay [6] was “Not Active” in each case.

`Cc1cc(C(C)(C)C)c(O)c(C)c1CC1=NCCN1` [OXYMETAZOLINE]: the IC50 result in assay [1] is “Not Active”; in assay [2], “Not Active”; in assay [3] it was “Not Active”; in assay [4] (read-out: IC50), 3060 nM; in assay [5] (read-out: IC50), 578 nM; in assay [6] it was “Not Active”. The Ki was found to be 1940 nM in assay [4] and 303 nM in assay [5].

For the compound `CCN(CCO)CCCC(C)Nc1ccnc2cc(Cl)ccc12` (centres undefined) [HYDROXYCHLOROQUINE], the half-maximal inhibitory concentration (IC50) entry in assay [1], in assay [2], in assay [3], in assay [4] (cho-k1), in assay [5] (cho-k1) and in assay [6] was “Not Active” throughout.

For the compound `CC12CCC(CC1=O)C2(C)C` (centres undefined) [CAMPHOR], the IC50 entry in assay [1], in assay [2], in assay [3], in assay [4] (cho-k1), in assay [5] (cho-k1) and in assay [6] was “Not Active” in each case.

With `CCC1(c2ccccc2)C(=O)NC(=O)NC1=O` [PHENOBARBITAL], the IC50 entry in assay [1], in assay [2], in assay [3], in assay [4] (cho-k1), in assay [5] (cho-k1) and in assay [6] was “Not Active” throughout.

Take `C[N+](C)(C)CCOP(=O)([O-])OC[C@H](O)CO`: the IC50 entry in assay [1], in assay [2], in assay [3], in assay [4] (cho-k1), in assay [5] (cho-k1) and in assay [6] was “Not Active” each time.

Turning to `Oc1ccccc1` [PHENOL], the IC50 entry in assay [1], in assay [2], in assay [3], in assay [4] (cho-k1), in assay [5] (cho-k1) and in assay [6] was “Not Active” in each case.
